Test results taken from publication PMC10394347 (Chinese Herbal Medicines, 2023).

Target: AKT (PH domain) (Homo sapiens, UniProt P31749)
Experiment: intrinsic fluorescence quenching
Assay type: binding

AKT (PH domain), sequence (P31749 1-123): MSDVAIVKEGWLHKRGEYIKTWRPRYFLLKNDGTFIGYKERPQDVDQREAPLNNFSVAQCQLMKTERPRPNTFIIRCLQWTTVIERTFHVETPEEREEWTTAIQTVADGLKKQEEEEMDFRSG

Question: With `O=C(O)/C=C/c1ccc(O[C@@H]2O[C@H](C(=O)O)[C@@H](O)[C@H](O)[C@H]2O)c(O)c1` [CA4G, caffeic-4′-O-glucuronide] as the molecule, how does the Kd read?
Answer: 37.9 µM

Question: Which Kd does the source give for `O=C(O)/C=C/c1ccc(O)c(O)c1` [CA, caffeic acid] here?
Answer: 183 µM

Question: With `COc1cc(/C=C/C(=O)O)ccc1O[C@@H]1O[C@H](C(=O)O)[C@@H](O)[C@H](O)[C@H]1O` [FA4G, ferulic-4′-O-glucuronide] as the molecule, how does the Kd read?
Answer: 48.1 µM

Question: Which Kd does the source give for `COc1cc(/C=C/C(=O)O)ccc1O` [FA, ferulic acid] here?
Answer: 185 µM
